Laboratory results reported in patent US20210299134A1, “TREATMENT OF B CELL MALIGNANCIES” (MEI Pharma, Inc., priority 2018, published 2021).

What was measured:
[1] = tested on: patients with relapsed B-cell malignancies (FL, CLL/SLL); assay: Phase 1b study of Compound A35 as single agent: disease response rate; type: in vivo, human
Description: (§1) An intermittent dosing schedule on days 1-7 of a 28-day cycle was then evaluated after 2 cycles of daily dosing, or ≥3 cycles of daily dosing to reduce the risk of immune-related adverse events. For this analysis the intermittent schedule (IS) group is defined as patients who received Compound A35 alone or with rituximab daily for 2 cycles then switched to an intermittent schedule of 1 week per cycle, and the continuous schedule (CS) group is defined as patients who never switched to intermittent dosing or switched to intermittent dosing in cycle 4 or later cycles. Toxicity on CS is managed by a switch to IS.
In an ongoing Phase 1b study, Compound A35 was administered as a single agent in patients with relapsed B-cell malignancies. Patients have been enrolled in 3 cohorts: • Group A: 31 patients enrolled in a dose escalation phase of the study, with Compound A35 administered as a single agent at a dose of 60, 120, and 180 mg/day. In Group A, all patients began receiving Compound A35 on a CS. Approximately 1.5 years after the start of the study, 17 ongoing patients were switched to the IS to prevent delayed immune-mediated toxicities after various duration of exposure on the CS. […]
31 patients received Compound A35 monotherapy at doses ≥60 mg daily on the CS, of whom 2 discontinued Compound A35 in the first 2 cycles of therapy and 29 received >2 cycles.
A very high rate of disease response was reported in 30 patients evaluable for response in the dose escalation cohort, both in FL and CLL/SLL, with no difference in response rate across the 3 doses evaluated (Table 2).

[2] = tested on: patients with relapsed B-cell malignancies; assay: Phase 1b study: patient dispositions on intermittent or continuous schedule; type: in vivo, human; conditions: Compound A35 alone arm
Description: as §1
In an ongoing Phase 1b study, Compound A35 was administered as a single agent in patients with relapsed B-cell malignancies. Patients have been enrolled in 3 cohorts: • Group A: 31 patients enrolled in a dose escalation phase of the study, with Compound A35 administered as a single agent at a dose of 60, 120, and 180 mg/day. In Group A, all patients began receiving Compound A35 on a CS. Approximately 1.5 years after the start of the study, 17 ongoing patients were switched to the IS to prevent delayed immune-mediated toxicities after various duration of exposure on the CS.
• Group B: 21 patients enrolled in an ongoing expansion cohort of up to 30 patients administered Compound A35 as a single agent at 60 mg/day on the CS for 2 cycles then switching to the IS in Cycle 3 (N=17) or later cycles (N=4).

Plasma half-life = type: in vivo; conditions: human, oral, healthy volunteers and patients with B-cell malignancies
Text: It is known that administration of an oral drug over a period equivalent to approximately 7 half-lives is necessary to achieve steady state plasma concentrations required for optimal antitumor activity, and that a period of approximately 7 half-lives is needed to clear a drug from the plasma after treatment interruption. TREGs repopulation occurs approximately 14 days after the administration of a single dose of the anti-CD25 immunotoxin denileukin diftitox (ONTAK®), a drug known to suppress TREGs. Therefore, it was hypothesized that administration of Compound A35 at 60 mg/day for 7 consecutive days will result in steady-state plasma concentrations sufficient to inhibit PI3K5 in target malignant B-cells and that 21 days without treatment will be sufficient to repopulate TREGs, which comprises 7 days to clear Compound A35 from the plasma (˜7 half-lives) and 14 days for reconstitution of TREGs after Compound A35 is cleared from the plasma.

murine B-cell tumors = assay: Tumor exposure and retention (FIGS. 3 and 4); type: in vivo
[3] = Plasma levels >IC90 and plasma versus tissue levels on intermittent dosing (FIGS. 6A-6B); type: in vivo, human; conditions: FIG. 6A
Text: There is also evidence pointing to a role for the PI3K pathway in T lymphocytes, which may explain these immune dysregulations. For example, in mice, genetic inactivation of p110δ results in a decrease of the function of regulatory T-cells (TREGs), a subset population of T-cells. […] In some instances, PI3K5 inhibition results in various immune-mediated toxicities such as enterocolitis and skin toxicity due to TREG suppression, as well as infections due to suppression of B-cells and effector T-cells. In some instances, treatment regimens with small molecule PI3K5 delta (or PI3K5) inhibitors on an intermittent dosing schedule (IS) are used. However, in certain instances, progression of disease is observed in subjects who are treated for B-cell malignancies, including chronic lymphocytic leukemia (CLL) and lymphomas with small molecule PI3K5 inhibitors (e.g., parsaclisib (INCB050465)) on an IS dosing regimen (see FIG. 6B). […] In some embodiments, the methods of treatment and dosing regimens and schedules described herein provide an efficacious and tolerable treatment of cancer. In some embodiments, the methods of treatment and dosing regimens and schedules described herein improve the frequency, severity and time to onset of the adverse events (AEs) associated with PI3K delta inhibitors. […]

[4] = All evaluable patients, 60 mg, n = 12
[5] = All evaluable patients, 120 mg, n = 12
[6] = All evaluable patients, 180 mg, n = 6
[7] = All evaluable patients, Total (all doses), n = 30
[8] = CLL/SLL, Total (all doses), n = 9
[9] = FL evaluable, Total (all doses), n = 21

For CN1CCC(c2ccccc2CC(C)(C)Nc2nc(N3CCOCC3)nc(-n3c(C(F)F)nc4ccccc43)n2)CC1 [Compound A35], the “Morphologic and/or metabolic complete response” value [1, 4] was “(42%)”, the “Morphologic and/or metabolic complete response, number of patients” value [1, 4] was 5 and the Overall response rate [1, 4] was “(92%)”. For the same molecule, the “Overall response rate, number of patients” value [1, 4] was 11, the “Morphologic and/or metabolic complete response” value [1, 5] was “(33%)” and the “Morphologic and/or metabolic complete response, number of patients” value [1, 5] was 4. For the same molecule, the Overall response rate [1, 5] was “(92%)”, the “Overall response rate, number of patients” value [1, 5] was 11 and the “Morphologic and/or metabolic complete response, number of patients” value [1, 6] was 0. For the same molecule, the Overall response rate [1, 6] was “(83%)”, the “Overall response rate, number of patients” value [1, 6] was 5 and the “Morphologic and/or metabolic complete response” value [1, 7] was “(30%)”. For the same molecule, the “Morphologic and/or metabolic complete response, number of patients” value [1, 7] was 9, the Overall response rate [1, 7] was “(90%)” and the “Overall response rate, number of patients” value [1, 7] was 27. For the same molecule, the Morphologic complete response ([1]; CLL/SLL, 60 mg, n = 6) was “(50%)”, the “Morphologic complete response, number of patients” value ([1]; CLL/SLL, 60 mg, n = 6) was 3 and the Overall response rate ([1]; CLL/SLL, 60 mg, n = 6) was “(100%)”. For the same molecule, the “Overall response rate, number of patients” value ([1]; CLL/SLL, 60 mg, n = 6) was 6, the “Morphologic complete response, number of patients” value ([1]; CLL/SLL, 120 mg, n = 2) was 0 and the Overall response rate ([1]; CLL/SLL, 120 mg, n = 2) was “(100%)”. For the same molecule, the “Overall response rate, number of patients” value ([1]; CLL/SLL, 120 mg, n = 2) was 2, the “Morphologic complete response, number of patients” value ([1]; CLL/SLL, 180 mg, n = 1) was 0 and the Overall response rate ([1]; CLL/SLL, 180 mg, n = 1) was “(100%)”. The “Overall response rate, number of patients” value ([1]; CLL/SLL, 180 mg, n = 1) was 1, the Morphologic complete response [1, 8] was “(33%)” and the “Morphologic complete response, number of patients” value [1, 8] was 3. The Overall response rate [1, 8] was “(100%)”, the “Overall response rate, number of patients” value [1, 8] was 9 and the “Morphologic and/or metabolic complete response” value ([1]; FL evaluable, 60 mg, n = 6) was “(33%)”. For the same molecule, the “Morphologic and/or metabolic complete response, number of patients” value ([1]; FL evaluable, 60 mg, n = 6) was 2, the Overall response rate ([1]; FL evaluable, 60 mg, n = 6) was “(83%)” and the “Overall response rate, number of patients” value ([1]; FL evaluable, 60 mg, n = 6) was 5. For the same molecule, the “Morphologic and/or metabolic complete response” value ([1]; FL evaluable, 120 mg, n = 10) was “(40%)”, the “Morphologic and/or metabolic complete response, number of patients” value ([1]; FL evaluable, 120 mg, n = 10) was 4 and the Overall response rate ([1]; FL evaluable, 120 mg, n = 10) was “(90%)”. For the same molecule, the “Overall response rate, number of patients” value ([1]; FL evaluable, 120 mg, n = 10) was 9, the “Morphologic and/or metabolic complete response, number of patients” value ([1]; FL evaluable, 180 mg, n = 5) was 0 and the Overall response rate ([1]; FL evaluable, 180 mg, n = 5) was “(80%)”. For the same molecule, the “Overall response rate, number of patients” value ([1]; FL evaluable, 180 mg, n = 5) was 4, the “Morphologic and/or metabolic complete response” value [1, 9] was “(21%)” and the “Morphologic and/or metabolic complete response, number of patients” value [1, 9] was 6. For the same molecule, the Overall response rate [1, 9] was “(86%)”, the “Overall response rate, number of patients” value [1, 9] was 18 and the “Discontinued therapy: Adverse event” value ([2]; CS Group (N = 25)) was “(16%)”. For the same molecule, the “Discontinued therapy: Adverse event, number of patients” value ([2]; CS Group (N = 25)) was 4, the “Discontinued therapy: Progressive disease” value ([2]; CS Group (N = 25)) was “(20%)” and the “Discontinued therapy: Progressive disease, number of patients” value ([2]; CS Group (N = 25)) was 5. For the same molecule, the “Discontinued therapy: Adverse event, number of patients” value ([2]; IS Group (N = 15)) was 0, the “Discontinued therapy: Progressive disease” value ([2]; IS Group (N = 15)) was “(20%)” and the “Discontinued therapy: Progressive disease, number of patients” value ([2]; IS Group (N = 15)) was 3. For the same molecule, the half-life (Plasma half-life) was roughly 28 h, the “retention in murine B-cell tumors compared to idelalisib” value (murine B-cell tumors; FIG. 4) was “preferential retention” and the tumor exposure (murine B-cell tumors; over a 4-hour and 24-hour period (FIG. 3)) was “preferential tumor exposure”. For the same molecule, the “plasma levels versus tissue levels” value [3] was “plasma levels underestimate tissue levels”.
